Assays:
[1] = tested on: β-catenin; test: Cancer stemness biomarker immunofluorescence in cancer xenograft tumors: β-catenin; type: in vivo
Procedure: (§1) The effects of 2-acetylnaphtho[2,3-b]furan-4,9-dione, a compound of formula (I), on cancer stem cell markers was examined in cancer xenograft models with and without irinotecan. Human cancer cells were subcutaneously implanted into the right flank of 5-7 weeks old female athymic nude mice. When tumor size reached 200 mm^3, animals were treated with 2-acetylnaphtho[2,3-b]furan-4,9-dione, irinotecan, or a combination of 2-acetylnaphtho[2,3-b]furan-4,9-dione and irinotecan. Tumors were harvested after first dosing.
(§2) The harvested tissues were fixed in 3.7% neutral buffered formaldehyde at 4° C. for overnight. The paraffin was embedded, cut to about 5 microns, and affixed onto positively-charged slides. After being baked and de-paraffinized, the slides with tumor or control tissues were incubated in 10 mM Sodium Citrate (pH 6.0) for 10 minutes. After antigen retrieval, slides were probed with primary antibodies P-STAT3 (rabbit, Cell Signaling, 1:100), 13-Catenine (mouse, Santa Cruz, 1:400) at 4° C. overnight, and then Alexa Fluor fluorescent dyes-conjugated secondary antibodies (1:500, Invitrogen). After mounting, the slides with ProLong mounting medium with DAPI (Invitrogen) were examined under a Zeiss fluorescence microscope with 20× objective, and analyzed with Zen software.

[2] = Phase Ib open-label multi-center study, pharmacokinetics; type: in vivo, human; settings: 240 mg BID with FOLFIRI, with and without bevacizumab
Procedure: The effects of 2-acetylnaphtho[2,3-b]furan-4,9-dione in combination with FOLFIRI in patients with advanced gastrointestinal cancer, including CRC and gastric cancer, were studied in phase lb open-label, multi-center studies. In one phase lb open label, multi-center clinical study, the safety, tolerability, and preliminary anti-tumor activity of 2-acetylnaphtho[2,3-b]furan-4,9-dione in combination with FOLFIRI, with and without bevacizumab, were assessed in adult patients with advanced gastrointestinal cancer, including CRC and gastric cancer. In addition, the pharmacokinetic profile and the pharmacodynamics (biomarkers) of 2-acetylnaphtho[2,3-b]furan-4,9-dione in combination with FOLFIRI, with and without bevacizumab, were studied, and the recommended phase II dose (RP2D) of 2-acetylnaphtho[2,3-b]furan-4,9-dione and FOLFIRI, with or without bevacizumab, were evaluated.
Pharmacokinetics and pharmacodynamics were evaluated and objective tumor response was assessed every 8 weeks using Response Evaluation Criteria In Solid Tumors (RECIST 1.1).

[3] = tested on: p-Stat3; test: Cancer stemness biomarker immunofluorescence in cancer xenograft tumors: p-Stat3; type: in vivo, mouse xenograft
Procedure: as §1, §2

[4] = added to irinotecan, cancer xenograft tumor model, FIG. 6
[5] = alone, human colon cancer xenograft tumor (SW480) in nude mice, FIG. 4

Question: With CC(=O)c1cc2c(o1)C(=O)c1ccccc1C2=O [2-acetylnaphtho[2,3-b]furan-4,9-dione] as the molecule, how does the “irinotecan-enhanced staining for stem cell marker β-catenin” value [1, 4] read?
Answer: Its value is “attenuated”.

Question: And the “expression of β-catenin stem cell marker” value [1, 5]?
Answer: Its value is “dramatically reduced”.

Question: What about the pharmacokinetic interactions [2] of the same molecule?
Answer: Its pharmacokinetic interactions is “No significant pharmacokinetic interactions were observed”.

Question: What about the “irinotecan-enhanced staining for stem cell marker p-Stat3” value [3, 4] of the same molecule?
Answer: Its value is “attenuated”.

Question: What about the “expression of p-Stat3 stem cell marker” value [3, 5] of the same molecule?
Answer: The value was “dramatically reduced”.

— patent US20180250260A1, “METHODS FOR TREATING CANCER” (BOSTON BIOMEDICAL, INC., priority 2015, published 2018)
